Reference: PMC3196589, “Fluorescent Peptide Biosensor for Probing the Relative Abundance of Cyclin-Dependent Kinases in Living Cells” (PLoS ONE, 2011)
No end group written: not given here.

Legend:
Assay in all cases: Live-cell ratiometric quantification of CDKSENS-Cy3/Ctrl-Cy5 fluorescence
Type in all cases: cell-based
[1] = test system: CDK/Cyclins in HT2-19 cells; conditions: for Mean Ratio CDKSENS-Cy3/Ctrl-Cy5: mean +/- SD of 3 fields
Experimental: (§1) Cell culture media, serum and antibiotics were purchased from Invitrogen. HeLa, HS68, A549, MCF-7 and U2OS cells were obtained from ATCC and were cultured in Dulbecco's Modified Eagle Medium (DMEM)+Glutamax supplemented with 10% Fetal Calf Serum (FCS), 1 mM penicillin and 1 mM streptomycin at 37°C in an atmosphere containing 5% CO2. HT2-19 cells, provided by Dr. A.Porter, were cultured in DMEM supplemented with non essential amino acids, antibiotics, sodium pyruvate, glutamine, and 10% FCS and grown with 50 uM isopropyl-thiogalactoside (IPTG) for maximal induction of CDK1 [28]. Cell extracts were prepared in lysis buffer containing 50 mM TrisHCl, pH 7.4, 150 mM NaCl, 0.1% NP40, 0.1% Deoxycholate, 2 mM EDTA, 1 mM phenylmethlsulfonyl fluoride (PMSF), CompleteTM protease inhibitors (Roche), 50 mM NaF, 40 mM β-Glycero-phosphate, 1 mM Na3VO4 and normalized following spectrophotometric dosage at 280 nm. […] Samples were then processed for SDS-PAGE and CDK, Cyclin retention was detected by Western blotting.
(§2) For fixed observations, cells were treated for 20 minutes with paraformaldehyde, nuclei were stained with Hoechst 33342 (Sigma), and cells were mounted with Prolong Gold AntiFade Reagent (Invitrogen). Epifluorescence images were acquired on a Leica DM6000 microscope (Leica Microsystems) piloted by the Metamorph software (Universal Imaging). For colocalization experiments, images were acquired on a Zeiss axioplan2/LSM510 META confocal microscope. Live-cell imaging was performed on a Zeiss Axiovert 200 M piloted by the Metamorph software. Images were processed with ImageJ software.
(§3) CDKSENS-Cy3 and Ctrl-Cy5 were complexed individually with CADY2 and codelivered into cells. Live-cell imaging acquisitions were substracted for background signal corresponding to minimal fluorescence levels using Metamorph. Image J was then used for image analysis. Regions of interest (ROI) corresponding to 10–15 cells in which fluorescence appeared homogeneous were designed and the mean grey levels of fluorescence for each channel (Cy3 and Cy5) were quantified within these ROIs. For each experiment, and the mean ratiometric value of CDKSENS-Cy3/Ctrl-Cy5 was calculated from 3–4 different ROIs. Each experiment was performed 3–4 times to assess the robustness of the quantification strategy. All statistical analyses are presented by the mean and standard deviation.

[2] = test system: CDK/Cyclins in HeLa cells
Experimental: as §1, §2, §3

[3] = test system: CDK/Cyclins in MCF7 cells
Experimental: as §1, §2, §3

Substance: CDKSENS-Cy3: CDKSENS labelled with cyanine probe Cy3 (C(Cy3 maleimide)DKSENS)
- decrease of CDKSENS-Cy3/Ctrl-Cy5 ratio without IPTG ([1]; HT2-19, 4 days without IPTG vs 50 uM IPTG): 20%
- Mean Ratio CDKSENS-Cy3/Ctrl-Cy5 ([1]; HT219+IPTG): 5,37+/−0,18
- Relative Mean Ratiometric Value ([1]; HT219+IPTG, normalized to highest mean): 1+/−0,033
- Mean Ratio CDKSENS-Cy3/Ctrl-Cy5 ([1]; HT219 WO IPTG): 4,36+/−0,21
- Mean Ratio CDKSENS-Cy3/Ctrl-Cy5 ([2]; HeLa (A549 experiment), mean +/- SD of 3 fields): 6,72+/−0,37
- Relative Mean Ratiometric Value ([2]; HeLa (A549 experiment), normalized to highest mean): 1+/−0,054
- Relative Mean Ratiometric Value ([2]; HeLa (HS68 experiment), normalized to highest mean): 1+/−0,039
- Mean Ratio CDKSENS-Cy3/Ctrl-Cy5 ([2]; HeLa (MCF7 experiment), mean +/- SD of 4 fields): 7,29+/−0,39
- Relative Mean Ratiometric Value ([2]; HeLa (MCF7 experiment), normalized to highest mean): 1+/−0,053
- Relative Mean Ratiometric Value ([2]; HeLa (U20S experiment), HeLa set to 1): 1+/−0,079
- Mean Ratio CDKSENS-Cy3/Ctrl-Cy5 ([2]; HeLa (U20S experiment), mean +/- SD of 4 fields): 6,79+/−0,53
- Mean Ratio CDKSENS-Cy3/Ctrl-Cy5 ([3]; MCF7, mean +/- SD of 4 fields): 5,99+/−0,33
- Relative Mean Ratiometric Value ([3]; MCF7, normalized to HeLa mean): 0.82+/−0,046
- decrease of CDKSENS-Cy3/Ctrl-Cy5 values, MCF7 vs HeLa ([3]; MCF7 compared to HeLa, range stated jointly for A549 and MCF7): 18–20%
